Results reported in patent publication US20130315940A1, “TREATMENT OF LIVER CANCER” (priority 2010, published 2013).
Entries after “also recorded” stand apart in the source; their conditions may differ.

How the values were obtained:
[1] = system: HuH7 hepatocellular carcinoma cell line; assay: Cell proliferation in culture (cell counting, Promega proliferation assay), HuH7; assay type: cell-based; details: FIG. 13A, HuH7, in the presence of cpg
Description: Using different techniques, manual cell counting, nucleo-counter machine and Promega proliferation assay. Using 10^4 […] 96 wells plate treat some of them with cpg (TLR9 stimulator; […] In Huh7, HepG2 and HUCCT

Hepatocellular carcinoma = assay: Chloroquine in a rodent model of HCC (DEN and NMOR); assay type: in vivo, fisher rats; details: for animals that developed evidence of hepatocellular carcinoma: Chloroquine 25 mg/kg/day with DEN and NMOR, weeks 8, 10 and 12 pooled
Experimental: 40 five weeks old male fisher rats were studied. They were divided into 2 groups, Group 1 contained 15 rats who were taking DEN and NMOR alone. […] The rats have been given 100 mg/kg DEN (Diethylnitrosamine) (sigma) once intraperitoneal. Nitosomorpholine (NMOR) was been supplied in water with concentration of 80 ppm.
Liver and blood were collected from the animals after 8, 10 and 12 weeks respectively. […] (Table 2)

[2] = system: HUCCT (cholangiocarcinoma); assay: Cholangiocarcinoma implantation in immunodeficient NOD-SCID mice; assay type: in vivo; details: for tumour size: after 50 days, compared with control, chloroquine 25 mg/kg in water supply (p<0.001), IRS 954 50 μl i.p. once weekly (p<0.01)
Experimental: 12 NOD-SCID mice were injected intrahepatically with 5×10^6 cells of HUCCT (cholangiocarcinoma). […] After 50 days a mass was found subcutaneously.

HCC = assay: Animal model for HCC: DEN and NMOR treated Fisher rats plus norfloxacin; assay type: in vivo, Fisher rat; details: for fibrosis grade: DEN + NMOR + norfloxacin 20 mg/kg per day by gavage, 14 weeks treatment, end at 16th week
Experimental: We chose a Fisher Rat to be our model. We started with 18 Fisher rats, which were 5 weeks old on the beginning of the experiment. We divided them into 3 groups. They were acclimatised for one week before the experiment at room temperature […] and humidity 60%-65%. The first group used 6 Fisher rats as an HCC model. On the day we started we weighed them and determined the exact dose for each rat.
We started with a single dose of DEN (Diethylnitrosamine™, sigma) using 100 mg/kg as single intraperitoneal injection. Then we put NMOR (Nitrosomorpholine™, Sigma) in the concentration of 80 ppm in the water for 14 weeks. The second group, another 6 Fisher rats, got the same HCC model treatment (DEN and NMOR) plus we gavaged them with norfloxacin in the dose of 20 mg/kg per day. The third group, at the same time, was 6 rats with a control of just plain water. We weighed them every other day and stopped treatment on the 14th week, then left them for two more weeks until the 16th week. We noticed the two groups who took the DEN and NMOR didn't increase in weight at the same rate as the control.
When we started our experiment the rats average weights were 212-241 g in the 1st group, 225-260 g and 221-249 g in the 2nd and 3rd groups respectively. At the end of experiment for the groups that took the carcinogenecic treatment average weights were 328-353 g and 330-372 g respectively. For the control group the average weight was 430-478 g. […] Control group: Smooth bright outer surface of the liver.

SMILES | inhibition of cpg associated proliferation [1] | animals that developed evidence of hepatocellular carcinoma (Hepatocellular carcinoma; untreated group 8/9, p<0.0001) | animals that developed evidence of hepatocellular carcinoma (Hepatocellular carcinoma; untreated group 89%) | microscopic and macroscopic appearance of hepatocellular carcinoma (Hepatocellular carcinoma; FIG. 10, DEN and NMOR group administered chloroquine) | HCC in Chloroquine treated (Hepatocellular carcinoma; Week 8th, DEN & NMOR alone 2/3) | HCC in Chloroquine treated (Hepatocellular carcinoma; Week 10th, DEN & NMOR alone 3/3) | HCC in Chloroquine treated (Hepatocellular carcinoma; Week 12th, DEN & NMOR alone 3/3) | size of the nodules ([2]; FIG. 11B, compared with controls) | tumour size [2] | tumour size ([2]; listed as chloroquine) | fibrosis grade (HCC) | fibrosis grade (HCC; listed as Norfloxacin) | HCC development / tumour grade (HCC; DEN + NMOR + norfloxacin group (2nd group)) | liver nodules (HCC; DEN, NMOR and Norfloxacin group versus DEN and NMOR group)
CCN(CC)CCCC(C)Nc1ccnc2cc(Cl)ccc12 (centres unmarked) [Chloroquine] | significantly inhibited | 1/10 | 10% | not seen; also recorded: no cancer was apparent either microscopically or macroscopically | 1/4 | 0/3 | 0/3 | significantly smaller | significant reduction | significantly less | – | – | – | –
CCn1cc(C(=O)O)c(=O)c2cc(F)c(N3CCNCC3)cc21 [norfloxacin] | – | – | – | – | – | – | – | – | – | – | 0-2 | minimal fibrosis | developed well-differentiated HCC except one | less nodules than the first group
